The values that follow come from patent publication US8940719B2, “Lithocholic acid analogues that inhibit sialyltransferase” (Academia Sinica, priority 2006, dated 2015).

In assay [1] the test system is CL1-5 lung cancer cells. The assay can be described thus: Cytotoxicity / cell growth, trypan blue exclusion. It counts as cell-based. The following applies: 5 μM or 10 μM, 48 hours, FBS-free media. The procedure:
To determine the effect of the synthesized membrane-permeable α-2,3-ST inhibitors disclosed in Example 1 on cellular processes, in vitro cytotoxicity and adhesion assays were performed on the highly metastatic lung cancer cell line CL1-5. CL1-5 cells were plated at 1×10^6 cells per 60 mm culture dish in DMEM containing 10% fetal bovine serum (FBS) in 5% CO2. The following day the media was replaced with FBS-free media containing inhibitors at 5 μM or 10 μM concentration in DMSO. Controls cells were treated with 0.1% DMSO-containing medium without inhibitor. Cell number and viability were determined 48 hours later by trypan blue exclusion. Treatment with three α-2,3-ST inhibitors, N-Pentyonic (compound 21), Lith-Triethyl-de (compound 20), and Lith-o-Asp (compound 13), inhibited CL1-5 cell growth by between 10-20% compared to control (FIG. 2A).

Assay [2] deals with α-2,3-sialylated antigens on CL1-5 cells. The assay can be described thus: Cell surface α-2,3-sialylated antigens by FLOW cytometry (FITC-MAL), CL1-5. Format: cell-based. To be noted: dose-dependent, five days. As to the method: (§1) To determine whether α-2,3-ST inhibition alters cell surface glycosylation, lung cancer cells were treated with Lith-o-Asp and cell surface α-2,3-sialylated antigens were detected by FLOW cytometry. Cells were treated with α-2,3-ST inhibitor for five days after which 1×10^6 lung cancer cells were collected and washed twice with Hank's balanced salt solution (HBSS). Collected cells were incubated with FITC-conjugated MAL (1:50) at 37° C. for 15-20 minutes, non-binding MAL was removed by washing with HBSS, and 3×10^4 cells were detected on a FACScalibur instrument (Becton Dickinson). Two different lung cancer cell lines were tested: CL1-1 with low metastatic potential and CL1-5 with high metastatic potential. Since CL1-5 cells were derived from the CL1-1 line by an in vitro matrix gel invasion assay (Chen et al., Cancer Res., 2001, 61:5223), these cell lines share the same genetic background. Treatment of CL1-1 cells with Lith-o-Asp reduced expression of α-2,3-sialylated antigens to around 15% of DMSO treated control cells at both 5 μM and 20 μM (FIG. 4A). In contrast, Lith-o-Asp inhibited the expression of cell surface α-2,3-sialylated antigens in the highly metastatic CL1-5 lung cancer cells in a dose-dependent manner of greater than 15% (FIG. 4B).

For assay [3], the system named is CL1-5 lung cancer cells. In words: Wound healing (cell migration) assay. Format: cell-based. To be noted: 10 μM, 48 hours, vs DMSO control. The procedure: A section of cells was then scraped from the culture plate to form a gap, and cell migration into the “wound” was observation over 48 hours in the continuous presence of α-2,3-ST inhibitor.
A further assay concerns the target Rat liver α-2,3-ST (Rattus norvegicus (Rat), UniProt Q02734). The assay can be described thus: α-2,3-ST inhibition assay (IC50), RP-HPLC of sialylated disaccharide product. It counts as biochemical. To be noted: for IC50: α-2,3-ST, CMP-Neu5Ac substrate, triplicate, read-out: IC50. As to the method: Compound synthesis was carried out with the following materials according the following general procedures. All chemicals and buffers were purchased from Sigma, Aldrich, or Acros Organics; and all amino acids were purchased from Advanced Chemtech. CMP-Neu5Ac was synthesized starting with sialic acid (Traving & Schauer, Cell. Mol. Life Sci., 1998, 54:1330; Schwarzkopf et al., Proc. Natl. Acad. Sci. USA, 2002, 99:5267). Synthesis of lactose acceptor was achieved as described in Harduin-Lepers et al., Biochimie, 2001, 83:727. Rat liver α-2,3-ST was obtained from CalBiochem at a concentration of 3.7 mU/μL, stored at −80° C., and used within one week. Melting points (m.p.) were recorded with a capillary melting point apparatus (Electrothermal MEL-TEMP); FT-IR spectra were recorded with Perkin Elmer FT-IR Spectrometer (Paragon 1000) in KBr pellets; ^1H and ^13C NMR spectra were recorded with Bruker AMX400 or 500 MHz instruments. Proton chemical shifts (δ) are reported in parts per million (ppm) relative to the methine singlet at 7.24 ppm for the residual CHCl3 in the deuteriochloroform, or the methyl pentet at 3.30 ppm for the residual CHD2OD in the methanol-d4. Carbon chemical shifts are reported in ppm relative to the internal ^13C signals in CDCl3 (77.0 ppm) and CD3OD-d4 (49.0 ppm). Mass spectra were obtained with a FAB JMS-700 double focusing mass spectrometer (JEOL, Tokyo, Japan), MALDI Voyager DE-PRO (Applied Biosystem Houston, USA), and ESI Finnigan LCQ mass spectrometer (Thermo Finnigan, San Jose, Calif., United States) in negative mode. […] The separation procedure was performed using H2O/0.1% trifluoroacetic acid (TFA) (A) and CH3CN/0.05% TFA (B) as eluents.
(§2) Each compound was tested for α-2,3-ST inhibition using CMP-Neu5Ac as a substrate and a modified disaccharide with a 4,5-dimethoxy-2-nitrobenzyl group as a UV-labeled acceptor. Specifically, inhibition assays were performed in triplicate in reaction solution containing 200 mM MES buffer, 100 mM sodium chloride, 0.5 mM disodium-EDTA, 0.01% Triton X-100, 20 μM modified disaccharide, 1.4 mU α-2,3-ST and inhibitor (in dimethyl sulfoxide) in a total volume of 55. Reactions were incubated at 37° C. for 10 minutes at which point 1 mM CMP-Neu5Ac (to a final concentration 3 μM) was added. The solution was then incubated at 37° C. until a detectable amount of product was produced. The reaction was terminated by quenching the solution mixture with heat at 100° C. for 5 minutes. Enzyme activity was determined by monitoring the quantity of sialylated disaccharide product produced over time at 348 nm by RP-HPLC (Supelco Discovery® HS C18, 5 μm, 4.6 mm×25 cm).

The subject of assay [4] is α-2,3-sialylated antigens on CL1-1 cells. In words: Cell surface α-2,3-sialylated antigens by FLOW cytometry (FITC-MAL), CL1-1. Format: cell-based. The following applies: both 5 μM and 20 μM, five days. As to the method: as §1
In another assay the target is rat α-2,3-ST (Rattus norvegicus (Rat), UniProt Q02734). The assay can be described thus: Inhibition constant (Ki) determination, Lineweaver-Burk plot, varying CMP-Neu5Ac. It counts as biochemical. The following applies: toward CMP-Neu5Ac. As to the method: as §2, with “cm). […]” for “cm).”
Sequence of rat α-2,3-ST (Q02734 whole entry): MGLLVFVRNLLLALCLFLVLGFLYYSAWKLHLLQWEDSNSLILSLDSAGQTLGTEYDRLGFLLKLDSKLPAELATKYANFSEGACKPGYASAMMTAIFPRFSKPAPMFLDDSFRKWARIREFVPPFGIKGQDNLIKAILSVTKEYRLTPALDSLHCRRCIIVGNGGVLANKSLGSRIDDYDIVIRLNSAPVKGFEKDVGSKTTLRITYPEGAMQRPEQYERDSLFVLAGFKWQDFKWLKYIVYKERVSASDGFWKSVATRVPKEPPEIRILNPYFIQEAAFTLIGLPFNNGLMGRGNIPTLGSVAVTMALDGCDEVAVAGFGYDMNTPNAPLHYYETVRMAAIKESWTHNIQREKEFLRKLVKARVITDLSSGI
Reactions were prepared in inhibition assay reaction solution described above and were incubated for 10 minutes after which 0.3, 0.15, and 0.037 mM CMP-Neu5Ac was added in the presence of inhibitor at 5, 4.5, 3.5, 2.5, and 0 μM. […] The absolute Ki value was determined from the horizontal intercept of a Lineweaver-Burk plot with […] on the vertical axis and inhibitor concentration on the horizontal axis (FIG. 1).

A further assay addresses α-2,3-ST. The following applies: inhibition of α-2,3-ST, Hsu et al. 2005; cited from earlier work.

Molecules are shown by their SMILES.

Sequence of Rat liver α-2,3-ST (Q02734 whole entry): as above

With `C[C@H](CCC(=O)O)C1CC[C@H]2C3CC[C@@H]4C[C@H](OC(=O)[C@@H](N)CC(=O)O)CC[C@]4(C)C3CC[C@]12C` (stereo partly drawn) [Compound 13, (R)-4-((3R,5R,10S,13R,14S)-3-((S)-2-amino-3-carboxypropanoyloxy)-10,13-dimethyl-hexadecahydro-1H-cyclopenta[a]phenanthren-17-yl)pentanoic acid], the “inhibition of CL1-5 cell growth compared to control” value with CL1-5 lung cancer cells [1] is given as 10-20%. Moreover, in assay [2], the “inhibition of expression of cell surface α-2,3-sialylated antigens” value is recorded as “greater than 15%”. Besides, the “migration ability of CL1-5 cells” value in the assay with CL1-5 lung cancer cells [3] (listed as Lith-O-Asp) is reported as “inhibited cell migration”; in the assay with CL1-5 lung cancer cells [3] (listed as Lith-o-Asp) it was “significantly decreased”. For the same molecule, the “fold potency over lithocholic acid” value at Rat liver α-2,3-ST (vs lithocholic acid) is 2 fold. Also, on Rat liver α-2,3-ST, the IC50 was 12 µM. Moreover, the “expression of α-2,3-sialylated antigens, % of DMSO treated control cells” value in assay [4] is given as “around 15%”.

`C[C@H](CCCn1cc(CCCC(=O)O)nn1)C1CC[C@H]2C3CC[C@@H]4C[C@H](O)CC[C@]4(C)C3CC[C@]12C` (stereo partly drawn) [Compound 22, 4-(1-((R)-4-((3R,5R,10S,13R,14S)-3-hydroxy-10,13-dimethyl-hexadecahydro-1H-cyclopenta[a]phenanthren-17-yl)pentyl)-1H-1,2,3-triazol-4-yl)butanoic acid]: at rat α-2,3-ST, the Ki came to 2.2 µM and the type of inhibition entry is “noncompetitive inhibition”. Also, the IC50 on Rat liver α-2,3-ST was 5 µM.

In the case of `C[C@@H]1O[C@@H](O[C@H]2[C@H](O[C@H]3[C@H](O[C@H]4CC[C@@]5(C)[C@@H](CC[C@]6(C)[C@@H]5CC=C5[C@@H]7CC(C)(C)C[C@@H](O)[C@]7(C)CC[C@]56C)[C@@]4(C)CO)O[C@H](C(=O)O)[C@@H](O)[C@@H]3O)O[C@H](CO)[C@H](O)[C@@H]2O)[C@H](O)[C@H](O)[C@H]1O` [Soyasaponin I], the Ki at α-2,3-ST was 2100 µM.
